The text below walks through data of patent US9290507B2, “B-RAF kinase inhibitors” (Boehringer Ingelheim International GmbH, priority 2010, dated 2016).

Structures are written as SMILES.

Chain of B-Raf (V600E)-kinase (P15056 whole entry V600E): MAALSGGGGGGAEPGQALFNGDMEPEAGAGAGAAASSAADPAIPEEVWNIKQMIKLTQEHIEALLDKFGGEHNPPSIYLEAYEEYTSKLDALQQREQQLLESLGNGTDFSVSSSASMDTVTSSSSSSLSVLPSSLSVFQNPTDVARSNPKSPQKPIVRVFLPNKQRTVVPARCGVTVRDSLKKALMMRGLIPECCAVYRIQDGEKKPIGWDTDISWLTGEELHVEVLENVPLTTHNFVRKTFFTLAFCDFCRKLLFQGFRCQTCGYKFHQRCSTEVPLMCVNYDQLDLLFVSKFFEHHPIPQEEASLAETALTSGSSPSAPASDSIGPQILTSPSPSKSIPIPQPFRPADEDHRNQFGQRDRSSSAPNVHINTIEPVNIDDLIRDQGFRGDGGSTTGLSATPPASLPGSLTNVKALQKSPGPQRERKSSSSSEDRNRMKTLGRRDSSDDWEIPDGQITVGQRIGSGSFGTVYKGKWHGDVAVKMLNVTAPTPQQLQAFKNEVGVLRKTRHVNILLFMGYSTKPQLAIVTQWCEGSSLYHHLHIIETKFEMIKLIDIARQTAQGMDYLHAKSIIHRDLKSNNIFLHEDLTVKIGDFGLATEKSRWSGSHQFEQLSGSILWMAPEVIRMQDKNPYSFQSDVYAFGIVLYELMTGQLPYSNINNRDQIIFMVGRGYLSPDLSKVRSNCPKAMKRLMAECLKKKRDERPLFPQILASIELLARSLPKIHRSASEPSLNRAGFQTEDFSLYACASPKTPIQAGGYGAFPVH

The assay concerns the target B-Raf (V600E)-kinase (Homo sapiens (Human), UniProt P15056, V600E). Kind of assay: Kinase test B-Raf (V600E). It counts as biochemical. The conditions noted are these: 1 h preincubation, 250 μM ATP. The protocol: In a dilution series 10 μL/well of test substance solution are placed in a multiwell plate. The dilution series is selected so that generally a range of concentrations of 2 μM to 0.119 nM or 0.017 nM is covered. If necessary the initial concentration of 2 μM is changed to 50 μM, 10 μM or 0.4 μM or 0.2857 μM and further dilution is carried out accordingly. The final concentration of DMSO is 5%. 10 μL/well of the B-Raf (V600E)-kinase solution are pipetted in (containing 0.5 ng B-Raf (V600E)-kinase (e.g. from Upstate) in 20 mM Tris-HCl pH 7.5, 0.1 mM EDTA, 0.1 mM EGTA, 0.286 mM sodium orthovanadate, 10% glycerol, 1 mg/mL bovine serum albumin, 1 mM dithiothreitol) and the mixture is incubated for 1 h at RT under with shaking. The kinase reaction is started by the addition of 20 μL/well ATP solution [final concentration: 250 μM ATP, 30 mM Tris-HCl pH 7.5, 0.02% Brij, 0.2 mM sodium orthovanadate, 10 mM magnesium acetate, 0.1 mM EGTA, phosphatase cocktail (Sigma, #P2850, dilution recommended by the manufacturer)] and 10 μL/well MEK1 solution [containing 50 ng biotinylated MEK1 (prepared from purified MEK1 according to standard procedure, e.g. with EZ-Link Sulpho-NHS-LC-Biotin reagent, Pierce, #21335)] and carried out for 60 min at RT with constant shaking. The reaction is stopped by the addition of 12 μL/well of a 100 mM EDTA solution and incubation is continued for a further 5 min. 55 μL/well of the reaction solution are transferred into a streptavidin-coated plate (e.g. Streptawell HighBond, Roche, #11989685001) and shaken gently for 1 h at RT, in order to bind biotinylated MEK1 to the plate. After elimination of the liquid the plate is washed five times with 200 μL/well of 1×PBS and 100 μL/well solution of primary antibody plus europium-labelled secondary antibody [Anti Phospho-MEK (Ser217/221), Cell Signaling, #9121 and Eu-N1 labelled goat-anti-rabbit antibody, Perkin Elmer, #AD0105] is added, the primary antibody is diluted 1:2000 and the secondary antibody is diluted to 0.4-0.5 μg/mL in Delfia Assay Buffer (Perkin Elmer, #1244-111). After 1 h shaking at RT the solution is poured away and washed five times with 200 μL/well Delfia Wash Buffer (Perkin Elmer, #4010-0010/#1244-114). After the addition of 200 μL/well Enhancement Solution (Perkin Elmer, #4001-0010/#1244-105) the mixture is shaken for 10 min at RT and then measured in a Wallac Victor using the program “Delfia Time Resolved Fluorescence (Europium)”. IC50 values are obtained from these dosage-activity curves using a software program (GraphPadPrizm).
For the compound `Cc1ccc(C(=O)Nc2cc(C(F)(F)F)ccn2)cc1-n1cc(-c2cncc(N3CC[C@H](N(C)C)C3)c2)nn1` [I-79], the IC50 (in general, the midpoint of a concentration-inhibition curve) came out at 9 nM.

`Cc1ccc(C(=O)Nc2cc(C(F)(F)F)ccn2)cc1-n1cc(-c2cncc(N3CC[C@@H](N(C)C)C3)c2)nn1` [I-80] came in with a half-inhibitory concentration (IC50) of 15 nM.

In turn, `Cc1ccc(C(=O)Nc2cc(C(F)(F)F)ccn2)cc1-n1cc(-c2cncc(NC3CCOCC3)c2)nn1` [I-81] gave a half-maximal inhibitory concentration (IC50) of 10 nM.

Compound `Cc1ccc(C(=O)Nc2cc(C(F)(F)F)ccn2)cc1-n1cc(-c2cncc(N3C[C@@H]4C[C@H]3CN4C)c2)nn1` [I-82] returned an IC50 of 6 nM.

`Cc1ccc(C(=O)Nc2cc(C(F)(F)F)ccn2)cc1-n1cc(-c2cncc(N3CCN(C)CC3)c2)nn1` [I-83] returned a concentration for half-maximal inhibition (IC50) of 7 nM.

With `Cc1ccc(C(=O)Nc2cc(C(F)(F)F)ccn2)cc1-n1cc(-c2cncc(N3CCCC3)c2)nn1` [I-84], half-maximal inhibition (IC50) required 7 nM.

On to `Cc1ccc(C(=O)Nc2cc(C(F)(F)F)ccn2)cc1-n1cc(-c2cncc(NCCN(C)C)c2)nn1` [I-85], for which half-maximal inhibition (IC50) was put at 10 nM.

`Cc1ccc(C(=O)Nc2cc(C(F)(F)F)ccn2)cc1-n1cc(-c2cncc(N(C)CCN(C)C)c2)nn1` [I-86] registered a 50% inhibitory concentration (IC50) of 10 nM.

Take `CCN1CCN(c2cncc(-c3cn(-c4cc(C(=O)Nc5cc(C(F)(F)F)ccn5)ccc4C)nn3)c2)CC1` [I-87]: the half-maximal inhibitory concentration (IC50) came to 7 nM.

The compound `Cc1ccc(C(=O)Nc2cc(C(F)(F)F)ccn2)cc1-n1cc(-c2cncc(N3CCN(C(C)C)CC3)c2)nn1` [I-88] registered a 50% inhibitory concentration (IC50) of 8 nM.

On to `Cc1ccc(C(=O)Nc2cc(C(C)(C)C)on2)cc1-n1cc(-c2cncc(N3CCC(N4CCN(C)CC4)C3)c2)nn1` (centres unmarked) [I-89], for which the IC50 stood at 6 nM.

As to `Cc1ccc(C(=O)Nc2cc(C(C)(C)C)on2)cc1-n1cc(-c2cncc(N3CCC(N4CCN(C)CC4)CC3)c2)nn1` [I-90], half-maximal inhibition (IC50) required 10 nM.

Compound `Cc1ccc(C(=O)Nc2cc(C(C)(C)C)on2)cc1-n1cc(-c2cncc(N3CCCN(C)CC3)c2)nn1` [I-91] yielded a half-maximal inhibitory concentration (IC50) of 8 nM.

On to `Cc1ccc(C(=O)Nc2cc(C(C)(C)C)on2)cc1-n1cc(-c2cncc(N3CCC(N4CCN(C(C)C)CC4)C3)c2)nn1` (centres unmarked) [I-92], for which the midpoint of inhibition, the IC50, lay at 8 nM.

Regarding `Cc1ccc(C(=O)Nc2cc(C(C)(C)C)on2)cc1-n1cc(-c2cncc(N3CC(N4CCN(C)CC4)C3)c2)nn1` [I-93], the midpoint of inhibition, the IC50, lay at 8 nM.

Compound `Cc1ccc(NC(=O)c2cc(C(F)(F)F)ccn2)cc1-n1cc(-c2cncc(N3CCOCC3)c2)nn1` [II-1] came in with an IC50 of 9 nM.

In the case of `Cc1ccc(NC(=O)c2cc(CNC(C)C)c(C(C)(C)C)o2)cc1-n1cc(-c2cncc(N3CCOCC3)c2)nn1` [II-2], the half-maximal inhibitory concentration (IC50) stood at 14 nM.

Regarding `Cc1ccc(NC(=O)c2ccc(C(C)(C)C)o2)cc1-n1cc(-c2cncc(N3CCN(C(C)(C)C)CC3)c2)nn1` [II-3], half-maximal inhibition (IC50) was put at 3 nM.

`Cc1ccc(NC(=O)c2cc(C(C)(C)C)nn2C)cc1-n1cc(-c2cncc(N3CCOCC3)c2)nn1` [II-4] gave an IC50 of 11 nM.

Compound `Cc1ccc(NC(=O)c2cc(C(C)(C)C)on2)cc1-n1cc(-c2cncc(N3CCOCC3)c2)nn1` [II-5] gave a half-inhibitory concentration (IC50) of 8 nM.

On to `Cc1ccc(NC(=O)c2cc(C(C)(C)C)nn2C)cc1-n1cc(-c2cncc(N3CCN(C)CC3)c2)nn1` [II-6], for which the half-maximal inhibitory concentration (IC50) came to 8 nM.

In turn, `Cc1ccc(NC(=O)c2cc(C(F)(F)F)ccn2)cc1-n1cc(-c2cncc(N3CCN(C)CC3)c2)nn1` [II-7] registered an IC50 of 4 nM.

For the compound `Cc1ccc(NC(=O)c2cc(C(C)(C)C)on2)cc1-n1cc(-c2cncc(N3CCN(C)CC3)c2)nn1` [II-8], the 50% inhibitory concentration (IC50) is 5 nM.

For `Cc1ccc(NC(=O)c2cc(C)n(C(C)(C)C)n2)cc1-n1cc(-c2cncc(N3CCOCC3)c2)nn1` [II-9], the half-maximal inhibitory concentration (IC50) stood at 18 nM.

With `Cc1ccc(NC(=O)c2cc(CN3CCCC3)c(C(C)(C)C)o2)cc1-n1cc(-c2cncc(N3CCOCC3)c2)nn1` [II-10], the 50% inhibitory concentration (IC50) stood at 11 nM.

Take `Cc1ccc(NC(=O)c2ccc(C(C)(C)C)s2)cc1-n1cc(-c2cncc(N3CCOCC3)c2)nn1` [II-11]: the 50% inhibitory concentration (IC50) was determined as 10 nM.

With `Cc1ccc(NC(=O)c2cc(C(C)(C)C)oc2C)cc1-n1cc(-c2cncc(N3CCOCC3)c2)nn1` [II-12], half-maximal inhibition (IC50) required 15 nM.

`Cc1ccc(NC(=O)c2ccc(C(C)(C)C)o2)cc1-n1cc(-c2cncc(N3CCOCC3)c2)nn1` [II-13] gave a concentration for half-maximal inhibition (IC50) of 9 nM.

Compound `CCN1CCN(c2cncc(-c3cn(-c4cc(NC(=O)c5ccc(C(C)(C)C)o5)ccc4C)nn3)c2)CC1` [II-14] yielded an IC50 of 3 nM.

For `Cc1ccc(NC(=O)c2ccc(C(C)(C)C)o2)cc1-n1cc(-c2cncc(N3CCN(C)CC3)c2)nn1` [II-15], the half-inhibitory concentration (IC50) is 2 nM.

Turning to `Cc1ccc(NC(=O)c2ccc(C(C)(C)C)o2)cc1-n1cc(-c2cncc(N3CCN(CC4CC4)CC3)c2)nn1` [II-16], the IC50 stood at 2 nM.

With `COCCCN1CCN(c2cncc(-c3cn(-c4cc(NC(=O)c5ccc(C(C)(C)C)o5)ccc4C)nn3)c2)CC1` [II-17], the IC50 was 1 nM.

For the compound `C=CCN1CCN(c2cncc(-c3cn(-c4cc(NC(=O)c5ccc(C(C)(C)C)o5)ccc4C)nn3)c2)CC1` [II-18], the 50% inhibitory concentration (IC50) is 5 nM.

`Cc1ccc(NC(=O)c2ccc(C(C)(C)C)o2)cc1-n1cc(-c2cncc(N3CCN(CC(C)C)CC3)c2)nn1` [II-19]: half-maximal inhibition (IC50) required 5 nM.

On to `Cc1ccc(NC(=O)c2ccc(C(C)(C)C)o2)cc1-n1cc(-c2cncc(N3CCNCC3)c2)nn1` [II-21], for which 1 nM corresponded to half-maximal inhibition (IC50).

On to `CCOCCN1CCN(c2cncc(-c3cn(-c4cc(NC(=O)c5ccc(C(C)(C)C)o5)ccc4C)nn3)c2)CC1` [II-22], for which the IC50 was 7 nM.

As to `Cc1ccc(NC(=O)c2ccc(C(C)(C)C)s2)cc1-n1cc(-c2cncc(N3CCN(C(=O)OC(C)(C)C)CC3)c2)nn1` [II-23], 141 nM corresponded to half-maximal inhibition (IC50).

In the case of `CCCN1CCN(c2cncc(-c3cn(-c4cc(NC(=O)c5ccc(C(C)(C)C)s5)ccc4C)nn3)c2)CC1` [II-25], the concentration for half-maximal inhibition (IC50) came out at 9 nM.

In the case of `CCN1CCN(c2cncc(-c3cn(-c4cc(NC(=O)c5ccc(C(C)(C)C)s5)ccc4C)nn3)c2)CC1` [II-27], the IC50 was 8 nM.

Turning to `CCOCCN1CCN(c2cncc(-c3cn(-c4cc(NC(=O)c5ccc(C(C)(C)C)s5)ccc4C)nn3)c2)CC1` [II-28], half-maximal inhibition (IC50) was put at 10 nM.

Compound `Cc1ccc(NC(=O)c2ccc(C(C)(C)C)s2)cc1-n1cc(-c2cncc(N3CCN(C(C)(C)C)CC3)c2)nn1` [II-29] displayed a half-maximal inhibitory concentration (IC50) of 10 nM.

As to `Cc1ccc(NC(=O)c2ccc(C(C)(C)C)s2)cc1-n1cc(-c2cncc(N3CCN(CC4CC4)CC3)c2)nn1` [II-31], the IC50 was determined as 8 nM.

For the compound `Cc1ccc(NC(=O)c2cc(C)n(C(C)(C)C)n2)cc1-n1cc(-c2cncc(N3CCN(C4CC4)CC3)c2)nn1` [II-34], it took 31 nM to reach half-maximal inhibition (IC50).

`CCN1CCN(c2cncc(-c3cn(-c4cc(NC(=O)c5cc(C)n(C(C)(C)C)n5)ccc4C)nn3)c2)CC1` [II-35]: the IC50 was 10 nM.

`Cc1ccc(NC(=O)c2cc(C)n(C(C)(C)C)n2)cc1-n1cc(-c2cncc(N3CCN(C(C)C)CC3)c2)nn1` [II-36] had a concentration for half-maximal inhibition (IC50) of 13 nM.

Compound `CCCN1CCN(c2cncc(-c3cn(-c4cc(NC(=O)c5cc(C)n(C(C)(C)C)n5)ccc4C)nn3)c2)CC1` [II-37] displayed an IC50 of 11 nM.

`Cc1ccc(NC(=O)c2cc(C)n(C(C)(C)C)n2)cc1-n1cc(-c2cncc(N3CCN(C)CC3)c2)nn1` [II-38] showed an IC50 of 11 nM.

Compound `Cc1ccc(NC(=O)c2cc(C)n(C(C)(C)C)n2)cc1-n1cc(-c2cncc(N3CCCN(C)CC3)c2)nn1` [II-39] had a half-maximal inhibitory concentration (IC50) of 9 nM.

Consider `Cc1ccc(NC(=O)c2cc(CNC(C)(C)C)c(C(C)(C)C)o2)cc1-n1cc(-c2cncc(N3CCOCC3)c2)nn1` [II-40], for which the concentration for half-maximal inhibition (IC50) was 11 nM.

The compound `Cc1ccc(NC(=O)c2cc(CNC3CCN(C)CC3)c(C(C)(C)C)o2)cc1-n1cc(-c2cncc(N3CCOCC3)c2)nn1` [II-41] returned an IC50 of 14 nM.

Turning to `Cc1ccc(NC(=O)c2cc(CN3CCN(C)CC3)c(C(C)(C)C)o2)cc1-n1cc(-c2cncc(N3CCOCC3)c2)nn1` [II-42], the IC50 worked out at 16 nM.

In turn, `Cc1ccc(NC(=O)c2cc(CN(C)CCN(C)C)c(C(C)(C)C)o2)cc1-n1cc(-c2cncc(N3CCOCC3)c2)nn1` [II-43] displayed an IC50 of 36 nM.

Regarding `Cc1ccc(NC(=O)c2cc(CN(C)C)c(C(C)(C)C)o2)cc1-n1cc(-c2cncc(N3CCOCC3)c2)nn1` [II-44], the half-maximal inhibitory concentration (IC50) came to 11 nM.
